How the values were obtained:
[1] = test system: hyperuricemia model of rats; test: Potassium oxonate hyperuricemia model of rats: serum uric acid, urea nitrogen and creatinine after 15 d intragastric administration (Example 22); assay type: in vivo; conditions: allopurinol 27 mg/kg + potassium oxonate 1.5 g/kg
Procedure: 105 SPF grade SD rats, all of which are male and have a body weight of 200±20 (g), provided by Beijing Vital River Laboratory Animal Technology Co., Ltd. (license number: SOCK (Beijing) 2012-0001) were taken. Potassium oxonate, Jinan Chenghuishuangda Chemical Co., Ltd. product with the batch number of 12042001, was prepared with 0.1% CMC-Na into a suspension of a concentration of 0.15 g/ml in an amount for 3 d each time and the stock was stored at 4° C. Allopurinol, Tokyo chemical industry Co. Ltd. product with the batch number of MYRYA-IR, was prepared with 0.1% CMC-Na into a suspension of a concentration of 2.7 g/ml in an amount for 3 d each time and the stock was stored at 4° C. . Uric acid and urea nitrogen test kit were provided by Centronic GmbH company in German, with the batch numbers of UF03121HH6G and UF01121GG66G respectively, and creatinine test kit was provided by Shanghai Lanyi Technology Co. Ltd. with the batch number of R102APA. […]
The body weights of the rats were monitored, the blood samples were collected to measure the uric acid, creatinine and urea nitrogen before the experiments and at the 15th day of the administration, and the variance ratio of the serum uric acid levels was measured and calculated. […]

[2] = Animal body weights in the hyperuricemia rat experiment (Example 22); assay type: in vivo, SD rats; conditions: allopurinol 27 mg/kg + potassium oxonate 1.5 g/kg, intragastric, mean ± SD
Procedure: (§1) 105 SPF grade SD rats, all of which are male and have a body weight of 200±20 (g), provided by Beijing Vital River Laboratory Animal Technology Co., Ltd. (license number: SOCK (Beijing) 2012-0001) were taken. Potassium oxonate, Jinan Chenghuishuangda Chemical Co., Ltd. product with the batch number of 12042001, was prepared with 0.1% CMC-Na into a suspension of a concentration of 0.15 g/ml in an amount for 3 d each time and the stock was stored at 4° C. Allopurinol, Tokyo chemical industry Co. Ltd. product with the batch number of MYRYA-IR, was prepared with 0.1% CMC-Na into a suspension of a concentration of […] in an amount for 3 d each time and the stock was stored at 4° C. . Uric acid and urea nitrogen test kit were provided by Centronic GmbH company in German, with the batch numbers of UF03121HH6G and UF01121GG66G respectively, and creatinine test kit was provided by Shanghai Lanyi Technology Co. Ltd. with the batch number of R102APA.
SD rats were adapted for 5 days in the experimental environment, and randomly divided by body weight into normal control group, model group, allopurinol group, Sample 1 (the composition of Chinese herbal medicines and tuna extract prepared in Example 18) high-dose group and low-dose group and Sample 2 (the composition of Chinese herbal medicines prepared in Example 18 excluding tuna extract) high-dose group and low-dose group. According to the clinical dose, the intragastric doses of Samples 1 and 2 were 5 times larger (0.2 ml/100 g) and 30 times larger (1.25 ml/100 g) than the recommended amount for human body for the low-dose groups and high-dose groups, respectively.
(§2) The same volume of drinking water was intragastrically administered to the normal control group every day, and the potassium oxonate was intragastrically administered to each of the rest groups of rats every morning at 1.5 g·kg^−1·d^−1; the same volume of physiological saline was intragastrically administered to the model group in the afternoon; the allopurinol was intragastrically administered to the allopurinol group at 27 mg·kg^−1·d^−1 in the afternoon; the samples to be tested of different doses diluted to the same volume were intragastrically administered to the Sample 1 of high-dose and low-dose groups and the Sample 2 of high-dose and low-dose groups in the afternoon.
(§3) The body weights of the rats were monitored, the blood samples were collected to measure the uric acid, creatinine and urea nitrogen before the experiments and at the 15th day of the administration, and the variance ratio of the serum uric acid levels was measured and calculated.

[3] = Animal body weights in the comparative test (Example 23); assay type: in vivo, SD rats; conditions: allopurinol 27 mg/kg + potassium oxonate 1.5 g/kg, mean ± SD
Procedure: as §1, §2, §3
Experimental group: Sample 1—the composition prepared in Example 1.

[4] = test system: hyperuricemia model of rats; test: Comparative test in potassium oxonate hyperuricemia rats: serum uric acid, urea nitrogen and creatinine (Example 23); assay type: in vivo; conditions: 15 d intragastric, allopurinol 27 mg/kg + potassium oxonate 1.5 g/kg, mean ± SD
Text: (license number: SOCK (Beijing) 2012-0001) were taken. […] Allopurinol, Tokyo chemical industry Co. […] Uric acid and urea nitrogen test kit were provided by Centronic GmbH company in German, with the batch numbers of UF03121HH6G and UF01121G[…] respectively, and creatinine test kit was provided by Shanghai Lanyi Technology Co. Ltd. with the batch number of […]. […] Modeling principle: the rats were intragastrically administered with the chemical uricase inhibitor, potassium oxonate to inhibit the uricase activity in the rats, which make the uric acid in their body unable to be decomposed and resulting in an increase of serum uric acid to replicate the hyperuricemia model of rats. The body weights of the rats were monitored, the blood samples were collected to measure the uric acid, creatinine and urea nitrogen before the experiments and at the 15th day of the administration, and the variance ratio of the serum uric acid levels was measured and calculated. Comparative Test […] Coicis semen 18, Cichorii Herba 8, […] Herba 8 and Pueraia Lobata Radix 8. The health food having the function of lowering uric acid provided in Comparative Example 2 of the present invention is prepared from the following components in parts by weight: Coicis semen 18, Motherwort 10, Cichorii Herba 8, […] Herba 8, Pueraia Lobata Radix 8 and tuna extract 0.1. […] Coicis semen 18, […] semen 9, Cichorii Herba 8, […] […]

Creatinine ([1]; model group 31.0 ± 3.3, mean ± SD): 27.9 ± 2.2 µmol/L | Creatinine ([4]; model group 31.0 ± 3.3): 27.9 ± 2.2 µmol/L
Structure (SMILES): Oc1ncnc2[nH]ncc12 [Allopurinol]
Uric Acid ([1]; model group 256.4 ± 41.3, mean ± SD): 31.8 ± 10.3 µmol/L | animal body weights, Before Experiments ([2]; baseline, N=15): 290 ± 13 g | animal body weights, 1 week after treatment [2]: 322 ± 20 g | animal body weights, 2 weeks after treatment [2]: 352 ± 24 g | animal body weights, 3 weeks after treatment [2]: 366 ± 28 g | animal body weights, 4 weeks after treatment [2]: 387 ± 29 g | animal body weights, Before Experiments ([3]; baseline, N=15): 290 ± 13 g | animal body weights, 1 week after treatment [3]: 322 ± 20 g | animal body weights, 2 weeks after treatment [3]: 352 ± 24 g | animal body weights, 3 weeks after treatment [3]: 366 ± 28 g | animal body weights, 4 weeks after treatment [3]: 387 ± 29 g | Uric Acid ([4]; model group 256.4 ± 41.3): 31.8 ± 10.3 µmol/L
